According to patent US11912668B2, “GCN2 and perk kinase inhibitors and methods of use thereof” (Deciphera Pharmaceuticals, LLC, priority 2020, dated 2024):

How the values were obtained:
[1] = system: phospho-GCN2 (Thr899) in HCT116 colorectal cancer cells; assay: HCT116 amino acid starved (-AA) phospho-GCN2 assay (Western blot); type: cell-based; conditions: Homo sapiens, HCT-116, 4 h, read-out: HCT116-AA pGCN2 Western Blot
Description: (§1) HCT116 colorectal cancer cells (catalog #CCL-247) were obtained from the American Type Culture Collect (ATTC, Manassas, VA). Briefly, cells were grown in RPMI 1640 supplemented with 10% heat inactivated fetal bovine serum (Invitrogen, Carlsbad, CA) and 1% Penicillin/Streptomycin/L-Glutamine at 37° C., 5% CO2, and 95% humidity. Cells were expanded until reaching 70-95% confluency at which point they were subcultured or harvested for assay use. Cells were seeded in 12-well culture plate at five hundred thousand cells per well in 1 mL complete growth medium and incubated overnight at 37° C., 5% CO2, and 95% humidity. The next day each well was replaced with 1 mL Earle's Balanced Salt Solution (EBSS, Invitrogen, Carlsbad, CA) supplemented with 10% Dialyzed Fetal Bovine Serum, 5.5 mM Glucose, 1% Penicillin/Streptomycin and 1% Vitamin solution (thermo #11120052). A serial dilution of test compound was dispensed into well. Plates were incubated for 4 h at 37° C., 5% CO2, and 95% humidity. At the end of the incubation, cells were washed with PBS supplemented with 1× Halt protease inhibitor, 1× Halt phosphatase inhibitor, 1× Sigma phosphatase inhibitor cocktail 2 and 1×EDTA and then lysed with M-PER Mammalian Protein Extraction Reagent supplemented with 3× of the inhibitor mix as described above. Cell lysates were sonicated with water bath sonicator (Qsonica, Newtown, CT) and supernatants were boiled with SDS buffer and reducing agent. Western blot was performed on each lysate to quantify phospho-GCN2 (Thr899), total GCN2, ATF4 and beta-Actin. Membranes were imaged with LI-COR Odyssey CLx Imaging System (LI-COR, Lincoln, NE). Data were analyzed using GraphPad Prism software (GraphPad, San Diego, CA) to calculate IC50 values.

[2] = system: ATF4 in HCT116 colorectal cancer cells; assay: HCT116 amino acid starved (-AA) ATF4 assay (Western blot); type: cell-based; conditions: Homo sapiens, HCT-116, 4 h
Description: as §1

PERK kinase = PERK kinase (Homo sapiens (Human), UniProt Q9NZJ5); assay: Biochemical assay for PERK (coupled pyruvate kinase/lactate dehydrogenase assay); conditions: 1 mM ATP, rate from 2-3 h time frame
PERK kinase, sequence (Q9NZJ5 other isoform, or with tags, fused parts or gaps): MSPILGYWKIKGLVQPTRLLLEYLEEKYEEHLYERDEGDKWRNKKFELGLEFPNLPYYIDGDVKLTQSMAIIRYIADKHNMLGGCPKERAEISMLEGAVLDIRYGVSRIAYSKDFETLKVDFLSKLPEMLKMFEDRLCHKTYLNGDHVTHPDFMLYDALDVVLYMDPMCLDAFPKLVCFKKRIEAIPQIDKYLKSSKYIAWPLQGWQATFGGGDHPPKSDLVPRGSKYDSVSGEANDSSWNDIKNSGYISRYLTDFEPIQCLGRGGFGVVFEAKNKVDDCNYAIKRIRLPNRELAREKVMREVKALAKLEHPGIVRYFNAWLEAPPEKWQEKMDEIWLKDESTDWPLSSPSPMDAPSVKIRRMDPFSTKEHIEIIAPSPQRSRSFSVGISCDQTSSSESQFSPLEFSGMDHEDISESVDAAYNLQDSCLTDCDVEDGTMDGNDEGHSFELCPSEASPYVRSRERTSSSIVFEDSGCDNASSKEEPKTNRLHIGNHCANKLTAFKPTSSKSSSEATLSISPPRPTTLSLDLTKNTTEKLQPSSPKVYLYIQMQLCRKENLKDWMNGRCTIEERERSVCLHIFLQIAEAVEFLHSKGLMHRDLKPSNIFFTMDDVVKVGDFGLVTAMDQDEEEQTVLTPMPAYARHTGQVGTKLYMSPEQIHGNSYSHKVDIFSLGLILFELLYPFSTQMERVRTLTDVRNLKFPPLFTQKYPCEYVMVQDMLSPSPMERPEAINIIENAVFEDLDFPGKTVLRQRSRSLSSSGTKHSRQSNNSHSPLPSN
How it was run: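 Coupled pyruvate kinase/lactate dehydrogenase readout of ATP hydrolysis via NADH oxidation (A340), 10 nM PERK, 0.25 mg/mL myelin basic protein, 1 mM ATP, pH 7.5 Tris/MgCl2 buffer, 1% DMSO. Absorbance followed 6 h at 30° C; rate from the 2-3 h window, normalised to no-compound and known-inhibitor controls, IC50 fitted.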

GCN2 kinase = GCN2 kinase (Homo sapiens (Human), UniProt Q9P2K8); assay: Biochemical assay for GCN2 (TR-FRET kinase activity assay); conditions: 1 mM ATP, 3-hour incubation
GCN2 kinase, sequence (Q9P2K8 whole entry): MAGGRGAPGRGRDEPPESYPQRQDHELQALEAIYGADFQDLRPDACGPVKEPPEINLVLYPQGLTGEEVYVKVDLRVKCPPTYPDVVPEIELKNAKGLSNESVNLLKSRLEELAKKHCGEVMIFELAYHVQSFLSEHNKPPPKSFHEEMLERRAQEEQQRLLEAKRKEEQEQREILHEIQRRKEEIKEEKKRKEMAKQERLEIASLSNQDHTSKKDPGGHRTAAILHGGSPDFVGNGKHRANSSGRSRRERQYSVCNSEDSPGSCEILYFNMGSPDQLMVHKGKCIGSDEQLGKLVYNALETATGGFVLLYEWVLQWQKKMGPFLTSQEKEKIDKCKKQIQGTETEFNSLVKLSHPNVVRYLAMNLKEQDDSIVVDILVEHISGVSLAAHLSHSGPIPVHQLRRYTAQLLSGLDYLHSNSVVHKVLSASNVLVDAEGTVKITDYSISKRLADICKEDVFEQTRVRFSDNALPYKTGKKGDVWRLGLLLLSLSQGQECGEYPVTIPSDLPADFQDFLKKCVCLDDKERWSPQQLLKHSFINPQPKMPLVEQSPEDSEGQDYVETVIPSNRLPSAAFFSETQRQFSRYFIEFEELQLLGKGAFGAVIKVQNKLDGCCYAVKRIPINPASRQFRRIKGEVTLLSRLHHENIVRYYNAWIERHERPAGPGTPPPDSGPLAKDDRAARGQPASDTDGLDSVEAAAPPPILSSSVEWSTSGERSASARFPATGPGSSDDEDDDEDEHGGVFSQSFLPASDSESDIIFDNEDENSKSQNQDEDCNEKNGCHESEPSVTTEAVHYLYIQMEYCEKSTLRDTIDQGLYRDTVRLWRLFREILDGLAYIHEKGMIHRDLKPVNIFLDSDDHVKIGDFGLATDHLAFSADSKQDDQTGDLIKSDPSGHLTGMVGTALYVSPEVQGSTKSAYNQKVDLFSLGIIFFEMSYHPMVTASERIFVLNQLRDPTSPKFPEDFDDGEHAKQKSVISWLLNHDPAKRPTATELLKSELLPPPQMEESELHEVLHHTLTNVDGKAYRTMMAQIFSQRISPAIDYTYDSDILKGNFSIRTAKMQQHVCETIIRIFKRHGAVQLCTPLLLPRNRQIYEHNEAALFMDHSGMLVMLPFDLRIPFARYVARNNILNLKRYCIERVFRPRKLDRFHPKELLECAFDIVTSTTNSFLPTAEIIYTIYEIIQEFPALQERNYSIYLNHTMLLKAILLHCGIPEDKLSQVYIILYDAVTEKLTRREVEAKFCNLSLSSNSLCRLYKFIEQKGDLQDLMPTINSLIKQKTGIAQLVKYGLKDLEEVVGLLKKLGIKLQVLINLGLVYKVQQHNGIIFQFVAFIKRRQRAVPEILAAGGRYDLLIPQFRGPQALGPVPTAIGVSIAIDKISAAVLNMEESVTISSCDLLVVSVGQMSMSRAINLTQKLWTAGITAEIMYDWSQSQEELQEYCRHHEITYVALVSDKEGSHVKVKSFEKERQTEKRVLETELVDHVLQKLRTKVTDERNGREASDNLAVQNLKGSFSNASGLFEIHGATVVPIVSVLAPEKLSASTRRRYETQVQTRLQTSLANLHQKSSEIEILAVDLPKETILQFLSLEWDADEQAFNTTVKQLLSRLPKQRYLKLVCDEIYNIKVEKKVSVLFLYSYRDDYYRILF
How it was run: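 TR-FRET assay with 2 nM GCN2, 130 nM GFP-eIF2α substrate, 0.2 mg/mL E. coli tRNA and 1 mM ATP; compounds (0.5% DMSO) reacted 3 h. Stopped with 20 mM EDTA plus 2 nM Tb-anti-peIF2α (pSer52), 60 min RT; 520/490 ratio converted to % inhibition, IC50 from four-parameter fit.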

CCRF-CEM leukemia cells = assay: CCRF-CEM ASNase cell proliferation assay, phenotypic assay for cellular inhibition of GCN2; type: cell-based; conditions: Homo sapiens; ASNase treated CCRF-CEM cells, 1 mU/mL ASNase, 72 h
Description: CCRF-CEM leukemia cells (catalog #CCL-116) were obtained from the American Type Culture Collect (ATTC, Manassas, VA). Cells were grown in RPMI-1640 medium supplemented with 10% heat-inactivated fetal bovine serum (Invitrogen, Carlsbad, CA) and 1% Penicillin/Streptomycin/L-Glutamine at 37° C., 5% CO2, and 95% humidity. Cells were expanded until reaching one million cells per mL at which time they are subcultured or harvested for assay use. Ten thousand cells per well in 200 μL RPMI-1640 supplemented with 10% heat-inactivated fetal bovine serum and 1% Penicillin/Streptomycin were dispensed into a 96-well black clear bottom plate. A serial dilution of test compound and 1 mU/mL ASNase was added in triplicate and plates were incubated for 72 h at 37° C., 5% CO2, and 95% humidity. At the end of the incubation, 40 μL of a […] solution of resazurin (Sigma, St. Louis, MO) in PBS was added to each well of the plate and plates were incubated for an additional 6 h at 37° C., 5% CO2, and 95% humidity. Plates were read on a Synergy2 or equivalent reader (Biotek, Winooski VT) using an excitation of 540 nm and an emission of 600 nm. Data was analyzed using GraphPad Prism software (GraphPad, San Diego, CA) to calculate IC50 values.

[3] = system: ATF4 in CCRF-CEM leukemia cells (PERK); assay: CCRF-CEM TG ATF4 ELISA, phenotypic assay for cellular inhibition of PERK preactivated by thapsigargin; type: cell-based; conditions: Homo sapiens; Thapsigargin (1 μM) stimulated CCRF-CEM cells
Description: CCRF-CEM leukemia cells (catalog #CCL-116) were obtained from the American Type Culture Collection (ATTC, Manassas, VA). Briefly, cells were grown in RPMI-1640 medium supplemented with 10% heat-inactivated fetal bovine serum (Invitrogen, Carlsbad, CA) and 1% Penicillin/Streptomycin/L-Glutamine at 37° C., 5% CO2, and 95% humidity. Cells were expanded until reaching one million cells per mL at which time they were subcultured or harvested for assay use. One million five hundred thousand cells per well in 1 mL complete growth medium were dispensed into 12-well plates and incubated overnight. A serial dilution of test compound was added and cells were incubated at 37° C., 5% CO2, and 95% for three hours, then 1 μM thapsigargin was added and cells were incubated for an additional hour at 37° C., 5% CO2, and 95%. Cells were lysed then ATF4 levels were measured using an ELISA assay (Proteintech, Rosemont, IL). Absorbance was measured at 450 nm and 544 nM using a Synergy2 or equivalent reader (Biotek, Winooski VT). Data was analyzed using PRISM software (Graphpad, San Diego, CA) to calculate IC50 values.

| SMILES | IC50 [1] [nM] | IC50 [2] [nM] | IC50 (PERK kinase) [nM] | IC50 (GCN2 kinase) [nM] | IC50 (CCRF-CEM leukemia cells) [nM] | IC50 [3] [nM] |
| --- | --- | --- | --- | --- | --- | --- |
| COc1ncc(Cl)cc1S(=O)(=O)Nc1cccc(-c2cc3cnc(N)cc3nc2C)c1Cl [Example 121] | ≤ 100 | ≤ 100 | ≤ 100 | ≤ 100 | ≤ 100 | 100 to 500 |
| CNc1ncc2cc(-c3cccc(NS(=O)(=O)c4cc(Cl)cnc4OC)c3F)ccc2n1 [Example 36] | ≤ 100 | ≤ 100 | ≤ 100 | ≤ 100 | ≤ 100 | 1000 to 10000 |
| CNc1ncc2cc(-c3cc(NS(=O)(=O)c4cc(Cl)cnc4OC)cc(F)c3C)c(C)nc2n1 [Example 26] | ≤ 100 | ≤ 100 | ≤ 100 | ≤ 100 | ≤ 100 | 1000 to 10000 |
| CNc1cc2nc(C)c(-c3cccc(NS(=O)(=O)c4cc(Cl)cnc4OC)c3Cl)cc2cn1 [Example 127] | ≤ 100 | ≤ 100 | ≤ 100 | ≤ 100 | ≤ 100 | 500 to 1000 |
| CNc1ncc2cc(-c3cccc(NS(=O)(=O)c4cc(Cl)cnc4OC)c3F)c(OC)nc2n1 [Example 66] | ≤ 100 | ≤ 100 | ≤ 100 | ≤ 100 | ≤ 100 | 1000 to 10000 |
| COc1ncc(Cl)cc1S(=O)(=O)Nc1cccc(-c2ccc3nc(NC(C)=O)ncc3c2)c1F [Example 35] | ≤ 100 | ≤ 100 | 100 to 500 | ≤ 100 | ≤ 100 | 1000 to 10000 |
| COc1ncc(Cl)cc1S(=O)(=O)Nc1cccc(-c2cc3cnc(N)cc3nc2C)c1F [Example 77] | ≤ 100 | ≤ 100 | ≤ 100 | ≤ 100 | ≤ 100 | 100 to 500 |
| CNc1ncc2cc(-c3cc(NS(=O)(=O)c4cc(Cl)cnc4OC)ccc3F)c(C)nc2n1 [Example 38] | ≤ 100 | 100 to 500 | 100 to 500 | ≤ 100 | 100 to 500 | 1000 to 10000 |
| COc1ncc(Cl)cc1S(=O)(=O)Nc1cccc(-c2cnc3cc(N)ncc3c2)c1F [Example 85] | ≤ 100 | ≤ 100 | ≤ 100 | ≤ 100 | ≤ 100 | 1000 to 10000 |
| COc1ncc(Cl)cc1S(=O)(=O)Nc1cccc(-c2cc3cnc(NC(C)=O)cc3nc2C)c1F [Example 84] | ≤ 100 | ≤ 100 | ≤ 100 | ≤ 100 | ≤ 100 | 100 to 500 |
| CNc1ncc2cc(-c3cccc(NS(=O)(=O)c4cc(Cl)cnc4OC)c3OC)c(C)nc2n1 [Example 89] | ≤ 100 | 100 to 500 | ≤ 100 | 100 to 500 | 100 to 500 | 1000 to 10000 |
| CNc1cc2nc(NC)c(-c3cccc(NS(=O)(=O)c4cc(Cl)cnc4OC)c3Cl)cc2cn1 [Example 113] | ≤ 100 | 100 to 500 | 100 to 500 | 100 to 500 | ≤ 100 | 500 to 1000 |
| CNc1ncc2cc(-c3cccc(NS(=O)(=O)c4cc(Cl)cnc4OC)c3F)c(N)nc2n1 [Example 61] | ≤ 100 | ≤ 100 | ≤ 100 | ≤ 100 | ≤ 100 | 100 to 500 |
| CNc1nc2nc(NC(C)C)ncc2cc1-c1cccc(NS(=O)(=O)c2cc(Cl)cnc2OC)c1F [Example 117] | 100 to 500 | 100 to 500 | 100 to 500 | ≤ 100 | 100 to 500 | 1000 to 10000 |
| CNc1ncc2cc(-c3cc(F)cc(NS(=O)(=O)c4cc(Cl)cc(CO)c4Cl)c3)c(NC)nc2n1 [Example 57] | ≤ 100 | ≤ 100 | ≤ 100 | ≤ 100 | ≤ 100 | 1000 to 10000 |
| CNc1ncc2cc(-c3cccc(NS(=O)(=O)c4cc(Cl)cnc4OC)c3F)c(NCCO)nc2n1 [Example 97] | ≤ 100 | 100 to 500 | 100 to 500 | ≤ 100 | ≤ 100 | 1000 to 10000 |
| CNc1ncc2cc(-c3cccc(NS(=O)(=O)c4cc(Cl)cnc4OC)c3Cl)c(C)nc2n1 [Example 67] | ≤ 100 | ≤ 100 | ≤ 100 | ≤ 100 | ≤ 100 | 1000 to 10000 |
| CNc1ncc2cc(-c3cccc(NS(=O)(=O)c4cc(Cl)cnc4OC)c3Cl)ccc2n1 [Example 62] | ≤ 100 | 100 to 500 | ≤ 100 | ≤ 100 | ≤ 100 | 1000 to 10000 |
| CNc1ncc2cc(-c3ccnc(NS(=O)(=O)c4cc(Cl)cnc4OC)c3F)c(OC)nc2n1 [Example 136] | ≤ 100 | 100 to 500 | 100 to 500 | ≤ 100 | 100 to 500 | 1000 to 10000 |
| CNc1ncc2cc(-c3cccc(NS(=O)(=O)c4cc(Cl)cc(C(C)(C)O)c4Cl)c3F)c(NC)nc2n1 [Example 74] | ≤ 100 | ≤ 100 | 100 to 500 | 100 to 500 | ≤ 100 | 1000 to 10000 |
| CNc1ncc2cc(-c3cccc(NS(=O)(=O)c4cc(Cl)cnc4NC)c3F)ccc2n1 [Example 50] | ≤ 100 | ≤ 100 | ≤ 100 | ≤ 100 | ≤ 100 | 1000 to 10000 |
| CNc1ncc2cc(-c3cccc(NS(=O)(=O)c4cc(Cl)c(OC)cc4Cl)c3F)c(NC)nc2n1 [Example 132] | ≤ 100 | ≤ 100 | ≤ 100 | ≤ 100 | ≤ 100 | 500 to 1000 |
| CNc1ncc2cc(-c3cc(NS(=O)(=O)c4cc(Cl)cnc4OC)cc(F)c3F)c(C)nc2n1 [Example 48] | ≤ 100 | ≤ 100 | 100 to 500 | ≤ 100 | 100 to 500 | 1000 to 10000 |
| COc1ncc(Cl)cc1S(=O)(=O)Nc1cccc(-c2cc3cnc(Nc4cnn(C)c4)nc3nc2C)c1F [Example 88] | ≤ 100 | ≤ 100 | ≤ 100 | ≤ 100 | ≤ 100 | 100 to 500 |
